Test results published in patent US10689362B2, “Quinoxaline compounds as type III receptor tyrosine kinase inhibitors” (Development Center for Biotechnology, priority 2016, dated 2020).

What was measured:
[1] = test system: THP-1 human acute monocytic leukemia cell harboring NRAS G12D mutation; assay: THP-1 cell proliferation assay (counter screen, CellTiter-96); type: cell-based; conditions: Cytotoxicity, THP-1 cells (counter screen), 72 hours
Method: (§1) Inhibition of cell growth by compounds was measured using CellTiter™-96 assay. The cytotoxicity of compounds was evaluated in CSF-1-dependent M-NFS-60 mouse myeloid leukemia cell, FLT3 signal addicted MV4-11 human acute myeloid leukemia cell with FLT3-ITD mutation, c-KIT signal addicted Kasumi-1 human acute myeloid leukemia cell with c-KIT N822K activating mutation, and THP-1 human acute monocytic leukemia cell harboring NRAS G12D mutation.
THP-1 human acute monocytic leukemia cells harbor NRAS G12D mutation, which renders cell proliferate independently of class III RTKs signal. […] Cells were allowed to expand until reaching saturation at which point they were subcultured or harvested for assay use.
(§2) M-NFS-60, Kasumi-1, MV4-11 and THP-1 cells were seeded into 96-well plates at 2000, 64000, 6500, and 5000 cells/well, respectively, and incubated at 37° C., 5% CO2 overnight. Then, these seeded cells were treated with increasing concentrations of the test compounds and incubated for another 72 hours. At the end of the incubation, CellTiter96® AQueous One Solution Reagent (Promega) was added and incubated for 4 hours. Cell viability was determined by measuring absorbance at 490 nm using EMax® microplate reader (Molecular Devices).

[2] = test system: Kasumi-1 human acute myeloid leukemia cell with c-KIT N822K activating mutation; assay: Kasumi-1 cell proliferation assay (CellTiter-96); type: cell-based; conditions: Cytotoxicity, Kasumi-1 cells, 72 hours
Method: as §1
(§3) The compounds disclosed herein were tested in Kasumi cell proliferation assay to determine their cellular potency against c-KIT kinase. Kasumi human acute myeloid leukemia cells harbor ligand-independent N822K c-KIT activating mutation, thus the cell proliferation relied on c-KIT signal. Inhibition of c-KIT kinase activity will cause reduced growth and/or cell death. […] Cells were allowed to expand until reaching saturation at which point they were subcultured or harvested for assay use.
as §2

[3] = test system: MV4-11 human acute myeloid leukemia cell with FLT3-ITD mutation; assay: MV4-11 cell proliferation assay (CellTiter-96); type: cell-based; conditions: Cytotoxicity, MV4-11 cells, 72 hours
Method: as §1
as §3, with “MV4-11” for “Kasumi”, “FLT3” for “c-KIT”, “FLT3-ITD” for “N822K c-KIT”, “which render its” for “thus the cell”, “FLT3-ITD dependent.” for “relied on c-KIT signal.”
as §2

[4] = test system: CSF-1-dependent M-NFS-60 mouse myeloid leukemia cell; assay: M-NFS-60 cell proliferation assay (CellTiter-96); type: cell-based; conditions: Cytotoxicity, M-NFS-60 cells, 72 hours
Method: as §1
The compounds disclosed herein were tested in M-NFS-60 cell proliferation assay to determine their cellular potency against CSF-1R. […] Inhibition of CSF-1R kinase activity will cause reduced growth and/or cell death. […] Cells were allowed to expand until reaching saturation at which point they were subcultured or harvested for assay use.
as §2

c-KIT kinase = c-KIT kinase (Homo sapiens (Human), UniProt P10721); assay: c-KIT kinase assay (radiometric); type: biochemical
Method: (§4) Inhibition of c-KIT kinase activity by a test compound disclosed herein was estimated by radiometric assay. Standard assay conditions were 20 ng of recombinant c-Kit (SignalChem) with 2 μg of substrate Poly-(Glu 4:Tyr 1) (sigma) in the assay buffer in kinase reaction buffer (10 mM MOPS pH 7.0, 0.21 mM EDTA, 0.5% glycerol, 0.001% Brij-35, 0.01 2-mercaptoehtanol, 1 mg/ml BSA, 10 mM MgCl2, 10 mM MnCl2, 10 μM ATP, 0.1 μCi per well [^33P]-ATP, in the presence of test compound (diluted in final concentration of 4% DMSO) or DMSO control, with a final volume of 25 μl for 60 minutes at 30° C. The reaction was stopped by adding 5 μl of 3% phosphoric acid solution. Total reaction solution was then harvested onto a filter plate (UniFilter-96 GF/B, PerkinElmer), and washed 20 times for 5 min with dH2O. 30 μl of MicroScint™-20 Cocktail (PerkinElmer) was added to dried plate. The plate was sealed and counted using a TopCount scintillation detector (PerkinElmer). […] The IC50 values of quinoxaline compounds of this invention against c-KIT kinase were determined using the GraphPad Prism 5 software.
(§5) The IC50 values for selected quinoxaline compounds of this invention against CSF-1R, c-KIT, FLT3, and PDGFRβ are summarized in Table 3.

FLT3 kinase = FLT3 kinase (Homo sapiens (Human), UniProt P36888); assay: FLT3 kinase assay (radiometric); type: biochemical; conditions: bound
Method: as §4, with “of FLT3” for “of c-KIT”, “were 5” for “were 20”, “recombinant FLT3 (Thermo Fisher)” for “recombinant c-Kit (SignalChem)”, “BSA, MgCl2” for “BSA,”, “10 mM,” for “10 mM MgCl2, 10 mM MnCl2,”, “against FLT3” for “against c-KIT”
as §5

PDGFRβ kinase = PDGFRβ kinase (Homo sapiens (Human), UniProt P09619); assay: PDGFRβ kinase assay (radiometric); type: biochemical; conditions: bound
Method: as §4, with “of PDGFRβ” for “of c-KIT”, “were 10” for “were 20”, “recombinant PDGFRβ” for “recombinant c-Kit”, “well [^33P]-ATP),” for “well [^33P]-ATP,”, “against PDGFRβ” for “against c-KIT”
as §5

Sequence of c-KIT kinase (P10721 26-976): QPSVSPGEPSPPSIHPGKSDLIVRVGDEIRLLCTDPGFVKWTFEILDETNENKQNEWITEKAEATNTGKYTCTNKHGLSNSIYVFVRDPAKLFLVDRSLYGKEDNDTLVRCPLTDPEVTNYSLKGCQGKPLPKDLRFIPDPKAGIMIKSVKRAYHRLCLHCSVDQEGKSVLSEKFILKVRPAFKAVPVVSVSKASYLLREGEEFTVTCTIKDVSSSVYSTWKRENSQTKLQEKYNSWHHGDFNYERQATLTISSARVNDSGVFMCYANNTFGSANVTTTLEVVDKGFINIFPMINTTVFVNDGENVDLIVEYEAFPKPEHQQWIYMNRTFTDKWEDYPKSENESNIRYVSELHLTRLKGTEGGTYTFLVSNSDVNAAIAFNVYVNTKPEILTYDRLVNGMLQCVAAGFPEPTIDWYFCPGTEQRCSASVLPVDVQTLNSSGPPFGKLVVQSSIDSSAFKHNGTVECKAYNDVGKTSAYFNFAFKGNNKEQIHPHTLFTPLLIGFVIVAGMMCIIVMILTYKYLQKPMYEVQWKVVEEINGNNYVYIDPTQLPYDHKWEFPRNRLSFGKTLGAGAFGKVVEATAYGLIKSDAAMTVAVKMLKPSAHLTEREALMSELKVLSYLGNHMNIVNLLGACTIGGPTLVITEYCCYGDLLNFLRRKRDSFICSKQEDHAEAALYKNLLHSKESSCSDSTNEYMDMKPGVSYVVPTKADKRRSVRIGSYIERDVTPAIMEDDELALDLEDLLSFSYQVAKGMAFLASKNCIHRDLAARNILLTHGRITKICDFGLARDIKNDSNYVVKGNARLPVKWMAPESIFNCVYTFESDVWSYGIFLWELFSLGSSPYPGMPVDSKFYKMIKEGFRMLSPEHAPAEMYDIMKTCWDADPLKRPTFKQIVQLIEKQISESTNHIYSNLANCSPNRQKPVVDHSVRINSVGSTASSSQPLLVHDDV
Sequence of PDGFRβ kinase (P09619 33-1106): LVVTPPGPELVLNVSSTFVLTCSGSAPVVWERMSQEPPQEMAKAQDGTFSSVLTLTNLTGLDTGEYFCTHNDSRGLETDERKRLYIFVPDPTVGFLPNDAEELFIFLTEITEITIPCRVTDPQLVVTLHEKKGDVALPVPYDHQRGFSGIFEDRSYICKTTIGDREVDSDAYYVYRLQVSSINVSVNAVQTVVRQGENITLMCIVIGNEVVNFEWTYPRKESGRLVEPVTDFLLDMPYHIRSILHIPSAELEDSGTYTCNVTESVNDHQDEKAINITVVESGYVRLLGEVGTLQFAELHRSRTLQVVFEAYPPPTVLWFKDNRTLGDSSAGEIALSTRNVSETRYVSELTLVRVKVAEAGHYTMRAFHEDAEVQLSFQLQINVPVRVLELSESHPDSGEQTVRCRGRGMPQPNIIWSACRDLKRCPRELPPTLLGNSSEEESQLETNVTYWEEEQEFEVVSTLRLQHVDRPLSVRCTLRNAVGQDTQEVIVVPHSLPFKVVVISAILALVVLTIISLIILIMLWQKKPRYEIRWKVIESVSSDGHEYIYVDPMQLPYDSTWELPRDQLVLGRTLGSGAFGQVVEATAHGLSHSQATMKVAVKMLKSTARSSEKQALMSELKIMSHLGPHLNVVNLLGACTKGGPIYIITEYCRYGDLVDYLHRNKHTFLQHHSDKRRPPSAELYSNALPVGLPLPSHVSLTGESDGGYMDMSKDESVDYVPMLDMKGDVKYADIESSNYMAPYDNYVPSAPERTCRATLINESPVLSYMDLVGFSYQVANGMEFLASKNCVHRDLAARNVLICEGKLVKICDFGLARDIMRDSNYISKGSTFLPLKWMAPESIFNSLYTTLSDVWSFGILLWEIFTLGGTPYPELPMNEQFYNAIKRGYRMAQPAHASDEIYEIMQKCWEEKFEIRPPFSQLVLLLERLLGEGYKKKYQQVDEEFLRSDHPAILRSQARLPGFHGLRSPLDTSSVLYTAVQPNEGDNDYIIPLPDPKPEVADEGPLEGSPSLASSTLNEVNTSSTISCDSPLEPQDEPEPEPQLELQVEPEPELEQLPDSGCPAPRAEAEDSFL
Sequence of FLT3 kinase (P36888 27-993): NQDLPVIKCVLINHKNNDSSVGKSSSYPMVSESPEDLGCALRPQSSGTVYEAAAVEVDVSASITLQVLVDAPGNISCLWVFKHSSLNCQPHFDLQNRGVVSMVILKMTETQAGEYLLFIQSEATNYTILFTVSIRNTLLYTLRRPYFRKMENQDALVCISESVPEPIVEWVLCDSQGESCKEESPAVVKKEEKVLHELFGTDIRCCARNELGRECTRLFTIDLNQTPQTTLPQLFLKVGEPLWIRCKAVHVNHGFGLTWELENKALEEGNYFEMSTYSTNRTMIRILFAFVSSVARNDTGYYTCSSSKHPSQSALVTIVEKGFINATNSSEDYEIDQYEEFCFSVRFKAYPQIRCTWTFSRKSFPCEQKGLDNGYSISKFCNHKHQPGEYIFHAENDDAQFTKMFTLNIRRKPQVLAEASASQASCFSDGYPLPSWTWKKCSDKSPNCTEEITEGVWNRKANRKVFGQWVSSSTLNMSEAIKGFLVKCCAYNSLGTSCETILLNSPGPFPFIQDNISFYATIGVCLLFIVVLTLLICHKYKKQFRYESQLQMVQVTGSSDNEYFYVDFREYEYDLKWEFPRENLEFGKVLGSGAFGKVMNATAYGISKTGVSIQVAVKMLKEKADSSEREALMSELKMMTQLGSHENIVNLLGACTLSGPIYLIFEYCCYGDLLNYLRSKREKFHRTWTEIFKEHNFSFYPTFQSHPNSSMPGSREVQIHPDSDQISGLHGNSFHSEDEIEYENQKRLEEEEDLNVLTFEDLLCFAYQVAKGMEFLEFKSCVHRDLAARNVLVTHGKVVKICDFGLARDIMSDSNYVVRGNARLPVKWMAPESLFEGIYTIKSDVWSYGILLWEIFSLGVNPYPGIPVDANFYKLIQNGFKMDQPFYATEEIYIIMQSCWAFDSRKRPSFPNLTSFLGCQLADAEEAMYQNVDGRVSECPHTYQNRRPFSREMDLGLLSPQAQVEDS

Row | IC50 (c-KIT kinase; class symbol) | IC50 (FLT3 kinase) | IC50 (PDGFRβ kinase) | IC50 (c-KIT kinase; bound) | Structure (SMILES) | IC50 [1] | IC50 [2] | IC50 [3] | IC50 [4]
1 |  |  |  |  | COc1cnc2ccc(Nc3ccc(OCc4cccnc4)c(OC)c3)c(C#N)c2n1 [Example 8, 3-methoxy-6-((3-methoxy-4-(pyridin-3-ylmethoxy)phenyl)amino)quinoxaline-5-carbonitrile] | > 10 µM | > 10 µM | 1 to 10 µM | > 10 µM
2 | < 100 nM | > 1000 nM | > 1000 nM |  | COc1cc(Nc2ccc3ncc(N4CCOCC4)nc3c2C#N)ccc1OCc1cnn(C2CC2)c1 [Example 134, 6-((4-((1-cyclopropyl-1H-pyrazol-4-yl)methoxy)-3-methoxy-phenyl)amino)-3-morpholinoquinoxaline-5-carbonitrile] |  |  |  | 
3 |  |  | > 1000 nM |  | COc1ccc(COc2ccc(Oc3ccc4ncc(OC)nc4c3C#N)cc2OC)cc1 [Example 10, 3-methoxy-6-(3-methoxy-4-((4-methoxpenzyl)oxy)phenoxy)quinoxaline-5-carbonitrile] |  |  |  | 
4 |  |  |  |  | COc1cc(Nc2ccc3ncc(N4CCOCC4)nc3c2C#N)ccc1OCC1CCN(C)CC1 [Example 42, 6-((3-methoxy-4-((1-methylpiperidin-4-yl)methoxy)phenyl)amino)-3-morpholinoquinoxaline-5-carbonitrile] | > 10 µM | 1 to 10 µM | 1 to 10 µM | 1 to 10 µM
5 |  |  |  |  | COc1cnc2ccc(Nc3ccc(OC)c(OC)c3)c(C#N)c2n1 [Example 11, 6-((3,4-dimethoxyphenyl)amino)-3-methoxyquinoxaline-5-carbonitrile] | > 10 µM | 1 to 10 µM | 1 to 10 µM | > 10 µM
6 | < 100 nM | > 1000 nM | > 1000 nM |  | COc1cc(Nc2ccc3ncc(N4CCOCC4)nc3c2C#N)ccc1OCc1ccc(C)nc1 [Example 54, 6-((3-methoxy-4-((6-methylpyridin-3-yl)methoxy)phenyl)amino)-3-morpholinoquinoxaline-5-carbonitrile] |  |  |  | 
7 |  | > 1000 nM | > 1000 nM | > 1000 nM | COc1ccc(COc2ccc(Oc3ccc4ncc(OC)nc4c3C#N)cc2OC)cc1 [Example 26, 3-methoxy-6-(3-methoxy-4-((4-methoxybenzyl)oxy)phenoxy)quinoxaline-5-carbonitrile] |  |  |  | 
8 |  |  |  |  | COc1cnc2ccc(Nc3ccc(OCc4cccnc4)nc3)c(C#N)c2n1 [Example 6, 3-methoxy-6-((6-(pyridin-3-ylmethoxy)pyridin-3-yl)amino)quinoxaline-5-carbonitrile] | > 10 µM | > 10 µM | 1 to 10 µM | > 10 µM
9 | 300 to 1000 nM | > 1000 nM | > 1000 nM |  | COc1cc(Nc2ccc3ncc(N4CCOCC4)nc3c2C#N)ccc1OCc1cnc(C)nc1 [Example 128, 6-((3-methoxy-4-((2-methylpyrimidin-5-yl)methoxy)phenyl)amino)-3-morpholinoquinoxaline-5-carbonitrile] |  |  |  | 
10 |  |  |  |  | CCOc1cc(Nc2ccc3ncc(N4CCOCC4)nc3c2C#N)ccc1OCc1ccncc1 [Example 47, 6-((3-ethoxy-4-(pyridin-4-ylmethoxy)phenyl)amino)-3-morpholinoquinoxaline-5-carbonitrile] | > 10 µM | > 10 µM | 1 to 10 µM | 1 to 10 µM
11 |  | > 1000 nM | > 1000 nM | > 1000 nM | CCOc1cc(Oc2ccc3ncc(OC)nc3c2C#N)ccc1OCc1ccc(OC)cc1 [Example 30, 6-(3-ethoxy-4-((4-methoxybenzyl)oxy)phenoxy)-3-methoxyquinoxaline-5-carbonitrile] |  |  |  | 
12 |  |  |  |  | COc1cnc2ccc(Nc3ccc(NCc4ccc(C(F)(F)F)nc4)nc3)c(C#N)c2n1 [Example 1, 3-methoxy-6-((6-(((6-(trifluoromethyl)pyridin-3-yl)methyl)amino)pyridin-3-yl)amino)quinoxaline-5-carbonitrile] | > 10 µM | 1 to 10 µM | 1 to 10 µM | > 10 µM
13 | < 100 nM | > 1000 nM | > 1000 nM |  | COc1cc(Nc2ccc3ncc(N4CCOCC4)nc3c2C#N)ccc1OCc1cccnc1 [Example 43, 6-((3-methoxy-4-(pyridin-3-ylmethoxy)phenyl)amino)-3-morpholinoquinoxaline-5-carbonitrile] |  |  |  | 
14 |  |  |  |  | COc1cc(Nc2ccc3ncc(N4CCOCC4)nc3c2C#N)ccc1OCC1(C)COC1 [Example 41, 6-((3-methoxy-4-((3-methyloxetan-3-yl)methoxy)phenyl)amino)-3-morpholinoquinoxaline-5-carbonitrile] | > 10 µM | 1 to 10 µM | 1 to 10 µM | > 10 µM
15 |  |  |  |  | COc1cc(Nc2ccc3ncc(N4CCOCC4)nc3c2C#N)ccc1OCC1CCCC1 [Example 44, 6-((4-(cyclopentylmethoxy)-3-methoxyphenyl)amino)-3-morpholinoquinoxaline-5-carbonitrile] | > 10 µM | 1 to 10 µM | 1 to 10 µM | 1 to 10 µM
16 |  |  |  |  | COc1ccc(CNc2ccc(Nc3ccc4ncc(OC)nc4c3C#N)cc2OC)cc1 [Example 14, 3-methoxy-6-((3-methoxy-4-((4-methoxybenzyl)amino)phenyl)amino)quinoxaline-5-carbonitrile] | > 10 µM | > 10 µM | 1 to 10 µM | > 10 µM
